Reference: patent US9624200B2, “Therapeutic piperazines” (DART NEUROSCIENCE (CAYMAN) LTD., priority 2006, dated 2017)

tested on: PDE4 from human U-937 cells; test: PDE4 Inhibition Assay; format: biochemical; conditions: 1 μM cAMP, [3H]-cAMP, read-out: Potency Class (Inhibitory Concentration) in the PDE4 assay
In short: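 U-937-derived PDE4 (2 μg/ml) was preincubated with compound in Tris-HCl pH 7.5 for 15 min at 25° C. It then reacted 20 min with cAMP plus [^3H]-cAMP. [^3H]-AMP was converted to [^3H]-adenosine by nucleotidase, resin-separated and counted; IC50 came from percent inhibition.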

Question: Which IC50 does the source give for `COc1ccc(N2CCN(C(=O)Cc3cncs3)[C@@H](Cc3ccccc3)C2)cc1OC1CCCC1` [Compound 291, (S)-1-(2-benzyl-4-(3-(cyclopentyloxy)-4-methoxyphenyl)piperazin-1-yl)-2-(thiazol-5-yl)ethanone] here?
Answer: 200 to 1000 nM

Question: With `COc1ccc(N2CCN(C(=O)Cc3nc(C)cs3)[C@@H](Cc3ccccc3)C2)cc1OC1CCCC1` [Compound 308, (S)-1-(2-benzyl-4-(3-(cyclopentyloxy)-4-methoxyphenyl)piperazin-1-yl)-2-(4-methylthiazol-2-yl)ethanone] as the compound, how does the IC50 read?
Answer: < 200 nM

Question: How did the IC50 turn out when `COc1ccc(N2CCN(C(=O)CC(=O)O)[C@@H](Cc3ccccc3)C2)cc1OC1CCC1` [Compound 258, (S)-3-(2-benzyl-4-(3-cyclobutoxy-4-methoxyphenyl)piperazin-1-yl)-3-oxopropanoic acid] was run?
Answer: < 200 nM

Question: With `COc1ccc(N2CCN(CCC(N)=O)[C@@H](Cc3ccccc3)C2)cc1OC1CCCC1` [Compound 269, (S)-3-(2-benzyl-4-(3-(cyclopentyloxy)-4-methoxyphenyl)piperazin-1-yl)propanamide] as the compound, how does the IC50 read?
Answer: < 200 nM

Question: Which IC50 does the source give for `COc1ccc(N2CCN(C(=O)Cc3n[nH]c(C)n3)[C@@H](CN3CCOCC3)C2)cc1OC1CCCC1` [Compound 256, (S)-1-(4-(3-(cyclopentyloxy)-4-methoxyphenyl)-2-(morpholinomethyl)piperazin-1-yl)-2-(5-methyl-1H-1,2,4-triazol-3-yl)ethanone] here?
Answer: < 200 nM

Question: How did the IC50 turn out when `COCC(=O)N1CCN(c2ccc(OC)c(OC3CCCC3)c2)C[C@@H]1Cc1ccccc1` [Compound 245, (S)-1-(2-benzyl-4-(3-(cyclopentyloxy)-4-methoxyphenyl)piperazin-1-yl)-2-methoxyethanone] was run?
Answer: 200 to 1000 nM

Question: How did the IC50 turn out when `COc1ccc(N2CCN(C(=O)CCc3cnc[nH]3)[C@@H](Cc3ccccc3)C2)cc1OC1CCCC1` [Compound 239, (S)-1-(2-benzyl-4-(3-(cyclopentyloxy)-4-methoxyphenyl)piperazin-1-yl)-3-(1H-imidazol-5-yl)propan-1-one] was run?
Answer: > 1000 nM

Question: With `CNCC(=O)N1CCN(c2ccc(OC)c(OC3CCC3)c2)C[C@@H]1Cc1ccccc1` [Compound 350, (S)-1-(2-benzyl-4-(3-cyclobutoxy-4-methoxyphenyl)piperazin-1-yl)-2-(methylamino)ethanone] as the compound, how does the IC50 read?
Answer: > 1000 nM

Question: For `COc1ccc(N2CCN(C(=O)CN3CC[C@H](O)C3)[C@@H](Cc3ccccc3)C2)cc1OC1CCCC1` [Compound 319, 1-((S)-2-benzyl-4-(3-(cyclopentyloxy)-4-methoxyphenyl)piperazin-1-yl)-2-((S)-3-hydroxypyrrolidin-1-yl)ethanone], which IC50 is on record?
Answer: 200 to 1000 nM

Question: Which IC50 does the source give for `COc1ccc(N2CCN(C(=O)Cc3ncc[nH]3)[C@@H](Cc3ccccc3)C2)cc1OC1CCCC1` [Compound 301, (S)-1-(2-benzyl-4-(3-(cyclopentyloxy)-4-methoxyphenyl)piperazin-1-yl)-2-(1H-imidazol-2-yl)ethanone] here?
Answer: < 200 nM

Question: With `COc1ccc(N2CCN(C(=O)Cc3cn(C)cn3)[C@@H](CC(C)C)C2)cc1OC1CCC1` [Compound 369, (S)-1-(4-(3-cyclobutoxy-4-methoxyphenyl)-2-isobutylpiperazin-1-yl)-2-(1-methyl-1H-imidazol-4-yl)ethanone] as the compound, how does the IC50 read?
Answer: 200 to 1000 nM

Question: Which IC50 does the source give for `COc1ccc(N2CCN(C(=O)Cc3n[nH]c(C)n3)[C@@H](CC(C)C)C2)cc1OC(C)C` [Compound 377, (S)-1-(2-isobutyl-4-(3-isopropoxy-4-methoxyphenyl)piperazin-1-yl)-2-(5-methyl-1H-1,2,4-triazol-3-yl)ethanone] here?
Answer: 200 to 1000 nM

Question: With `COc1ccc(N2CCN(C(=O)Cc3cncn3C)[C@@H](Cc3ccccc3)C2)cc1OC1CCCC1` [Compound 318, (S)-1-(2-benzyl-4-(3-(cyclopentyloxy)-4-methoxyphenyl)piperazin-1-yl)-2-(1-methyl-1H-imidazol-5-yl)ethanone] as the compound, how does the IC50 read?
Answer: 200 to 1000 nM

Question: How did the IC50 turn out when `COc1ccc(N2CCN(C(=O)C3CNC(=O)N3)[C@@H](Cc3ccccc3)C2)cc1OC1CCCC1` (stereo partly drawn) [Compound 281, 4-((S)-2-benzyl-4-(3-(cyclopentyloxy)-4-methoxyphenyl)piperazine-1-carbonyl)imidazolidin-2-one] was run?
Answer: < 200 nM

Question: `COc1ccc(N2CCN(C(=O)C3CCC(=O)N3)[C@@H](Cc3ccccc3)C2)cc1OC1CCCC1` (mixture of isomers) [Compound 285, (S)-5-(2-benzyl-4-(3-(cyclopentyloxy)-4-methoxyphenyl)piperazine-1-carbonyl)pyrrolidin-2-one] was tested. Which IC50 did it give?
Answer: 200 to 1000 nM

Question: How did the IC50 turn out when `COc1ccc(N2CCN(C(=O)Cn3ccnc3)[C@@H](Cc3ccccc3)C2)cc1OC1CCCC1` [Compound 290, (S)-1-(2-benzyl-4-(3-(cyclopentyloxy)-4-methoxyphenyl)piperazin-1-yl)-2-(1H-imidazol-1-yl)ethanone] was run?
Answer: > 1000 nM

Question: Which IC50 does the source give for `COc1ccc(N2CCN(C(=O)Cc3ccccn3)[C@@H](Cc3ccccc3)C2)cc1OC(C)C` [Compound 341, (S)-1-(2-benzyl-4-(3-isopropoxy-4-methoxyphenyl)piperazin-1-yl)-2-(pyridin-2-yl)ethanone] here?
Answer: 200 to 1000 nM

Question: `Cc1nc(CC(=O)N2CCN(c3ccc(OC(F)F)c(OC4CCC4)c3)C[C@@H]2Cc2ccccc2)n[nH]1` [Compound 345, (S)-1-(2-benzyl-4-(3-cyclobutoxy-4-(difluoromethoxy)phenyl)piperazin-1-yl)-2-(5-methyl-1H-1,2,4-triazol-3-yl)ethanone] was tested. Which IC50 did it give?
Answer: < 200 nM

Question: `COc1ccc(N2CCN(C(=O)c3ccc(O)c(O)c3)[C@@H](Cc3ccccc3)C2)cc1OC1CCCC1` [Compound 286, (S)-(2-benzyl-4-(3-(cyclopentyloxy)-4-methoxyphenyl)piperazin-1-yl)(3,4-dihydroxyphenyl)methanone] was tested. Which IC50 did it give?
Answer: > 1000 nM

Question: Which IC50 does the source give for `COc1ccc(N2CCN(C(=O)Cc3nc(C)n[nH]3)[C@@H](Cc3ccccc3)C2)cc1OC(C)C` [Compound 330, (S)-1-(2-benzyl-4-(3-isopropoxy-4-methoxyphenyl)piperazin-1-yl)-2-(3-methyl-1H-1,2,4-triazol-5-yl)ethanone] here?
Answer: < 200 nM

Question: `COc1ccc(N2CCN(C(=O)Cc3nn[nH]n3)[C@@H](Cc3ccccc3)C2)cc1OC1CCCC1` [Compound 294, (S)-1-(2-benzyl-4-(3-(cyclopentyloxy)-4-methoxyphenyl)piperazin-1-yl)-2-(2H-tetrazol-5-yl)ethanone] was tested. Which IC50 did it give?
Answer: < 200 nM

Question: With `COc1ccc(N2CCN(C(=O)CN)[C@@H](Cc3ccccc3)C2)cc1OC1CCC1` [Compound 349, (S)-2-amino-1-(2-benzyl-4-(3-cyclobutoxy-4-methoxyphenyl)piperazin-1-yl)ethanone] as the compound, how does the IC50 read?
Answer: > 1000 nM

tested on: contextual memory (freezing) in C57BL/6 male mice; test: Contextual Memory Assay: Fear Conditioning; format: in vivo, mouse; conditions: 0.1 mg/kg injected 20 minutes before training
Excerpt: Contextual memory is a form of Pavlovian fear conditioning in which a naive mouse is placed into a novel chamber (context) containing distinct visual, olfactory and tactile cues. After several minutes of acclimation, the mouse receives a brief, mild electric shock to its feet. From this negative experience, the mouse will remember for months that that chamber is dangerous. When placed back into the same context at some later time after training, the mouse's natural response to danger is to “freeze,” sitting stone still for many seconds. This is similar to what happens to humans when they experience fear. The percent of time during an observation period that the mouse spends frozen represents a quantitative measure (memory score) of its memory of the context.
Young-adult (10-12 weeks old) C57BL/6 male mice and Sprague Dawley male rats of 250-300 g (Taconic, N.Y.) were used. Mice were group-housed (5 mice) in standard laboratory cages while rats were housed in pairs and maintained on a 12:12 light-dark cycle. The experiments were always conducted during the light phase of the cycle. With the exception of testing times, the mice had ad lib access to food and water. […]
To assess contextual memory, a modified contextual fear conditioning task originally developed for evaluation of memory in CREB knock-out mice was used (Bourtchouladze, et. aL, Cell, 1994, 79, 59-68). […] 24 hours after training, the mouse was placed into the same training chamber and contextual memory was assessed by scoring freezing behavior (‘freezing’ serves as memory score). […]
All experiments were designed and performed in a balanced fashion, meaning that (i) for each experimental condition (e.g. a specific dose-effect) an equal number of experimental and control mice was used; (ii) each experimental condition was replicated 2-3 independent times, and replicate days were added to generate final number of subjects. […] Data were analyzed by Student's unpaired t test using a software package (Statview 5.0.1; SAS Institute, Inc). All values in the text and figures are expressed as mean+SEM. […]

Question: How did the “effect on contextual memory” value turn out when `COc1ccc(N2CCN[C@@H](CC3CCCCC3)C2)cc1OC1CCCC1` [Compound 126, (S)-3-Cyclohexylmethyl-1-(3-cyclopentyloxy-4-methoxy-phenyl)-piperazine] was run?
Answer: no significant effect

same assay, conditions: 1 mg/kg injected 20 minutes before training, 2 training trials, vehicle 22.3+3.2%, p<0.05

Question: With `COc1ccc(N2CCN[C@@H](CC3CCCCC3)C2)cc1OC1CCCC1` [Compound 126, (S)-3-Cyclohexylmethyl-1-(3-cyclopentyloxy-4-methoxy-phenyl)-piperazine] as the compound, how does the “freezing (memory score) 24 hours after training” value read?
Answer: 32.5+3.2%

same assay, conditions: 10 mg injected 20 minutes before training, 2 training trials, vehicle 22.3+3.2%, p<0.005

Question: For `COc1ccc(N2CCN[C@@H](CC3CCCCC3)C2)cc1OC1CCCC1` [Compound 126, (S)-3-Cyclohexylmethyl-1-(3-cyclopentyloxy-4-methoxy-phenyl)-piperazine], which “freezing (memory score) 24 hours after training” value is on record?
Answer: 38.3%
